# Results reported in article PMC3828397, “Characterization of PfTrxR inhibitors using antimalarial assays and in silico techniques” (Chemistry Central Journal, 2013).
# Like-named read-outs stand apart in the source and are kept apart here.
# Assays:
# [1] = test system: P. falciparum chloroquine sensitive (D6, Sierra Leone) strain; test: In vitro antimalarial assay (SYBR green), D6 strain; assay type: cell-based, Plasmodium falciparum
# 3T3 cells = test: Cytotoxicity assay (AlamarBlue); assay type: cell-based
# Human erythrocytes = test: ROS assay in DCFDA loaded erythrocytes; assay type: cell-based
# [2] = test system: P. falciparum CQ-sensitive (D6) and CQ-resistant (W2) strains; test: In vitro antimalarial assay, statements covering both strains; assay type: cell-based, Plasmodium falciparum; details: for IC50: Plasmodium falciparum, strain not given, read-out: antimalarial activity IC50 (abstract)
# PfTrxR = details: read-out: Pf TrxR IC50; cited from earlier work
# hTrxR = details: read-out: Exptl. IC50, hTrxR; cited from earlier work
# [3] = test system: P. falciparum chloroquine resistant (W2, IndoChina) strain; test: In vitro antimalarial assay (SYBR green), W2 strain; assay type: cell-based, Plasmodium falciparum
# [4] = Plasmodium falciparum, D6 clone, mean ± S.D. of triplicate observations, read-out: Pf (D6) CQ sensitive IC50
# [5] = Plasmodium falciparum, W2, W2 clone, mean ± S.D. of triplicate observations, read-out: Pf (W2) CQ resistance IC50
# [6] = Mus musculus, NIH3T3, 3T3 cells, AlamarBlue, NC: no cytotoxicity up to concentration much higher than the antiplasmodial concentration, read-out: 3T3 IC50
# [7] = test compounds 50 μM, DCFDA fluorescence monitored for 120 min
# [8] = against the two strains of P. falciparum
# [9] = Plasmodium falciparum, D6, read-out: Pf (D6) CQ sensitive IC50
# [10] = Plasmodium falciparum, W2, read-out: Pf (W2) CQ resistance IC50
Compound,IC50 ([1]; read-out: Pf (D6) CQ sensitive IC50) [µM],IC50 (3T3 cells; read-out: 3T3 IC50) [µM],intraerythrocytic formation of ROS (oxidative stress) (Human erythrocytes),antimalarial activity in words [2],IC50 (PfTrxR) [µM],IC50 (hTrxR) [µM],"IC50 [1, 4] [µM]","IC50 [3, 5] [µM]","IC50 ([3]; W2 clone, mean ± S.D. of triplicate observations, read-out: Pf (W2) CQ resistance IC50) [µM]",IC50 (3T3 cells; [6]) [µM],intraerythrocytic formation of ROS (oxidative stress) (Human erythrocytes; [7]),IC50 [2] [µM],"antimalarial activity in words [2, 8]","IC50 [1, 9] [µM]","IC50 [3, 10] [µM]","IC50 (3T3 cells; Mus musculus, NIH3T3, read-out: 3T3 IC50) [µM]"
4-nitrobenzothiadiazole [4-NBT],8.3 ± 2.1,80 ± 1.15,significant increase,most active,2,50,–,–,–,–,–,–,–,–,–,–
"O=C1C=CC(=O)c2ccccc21 [1,4-NQ, 1,4-napthoquinone]",–,–,–,–,0.75,–,8.9 ± 2.3,< 20,16.7 ± 3.7,38.5 ± 0.76,significant increase,< 20,most active,–,–,–
"CN(C)CCC(=O)c1ccccc1 [3-DAP, 3-dimethylaminopropiophenone]",–,–,did not cause the production of ROS,–,15.4,–,–,–,–,–,–,–,inactive,> 100,> 100,> 100
"CCN(CC)CCCC(C)Nc1ccnc2cc(Cl)ccc12 (centres unmarked) [CQ, chloroquine]",–,–,–,–,–,–,–,–,–,–,–,–,–,0.055 ± 0.006,0.44 ± 0.045,–
"CC1=CC(=O)c2ccccc2C1=O [MD, menadione]",–,–,–,–,1.6,–,18.5 ± 1.9,28.3 ± 5.6,–,70.5 ± 3.69,significant increase,< 20,moderately active,–,–,–
